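Exposure lasted 48 hours, with cells grown in 96-well plates and compounds tested at five concentrations. GI50 = concentration required for 50% inhibition of growth. TGI marks complete inhibition of growth.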
What was measured:
Assay in all cases: DTP human tumour cell line panel, 48 h
MDA-MB-231 breast = tested on: MDA-MB-231 breast
ACHN renal = tested on: ACHN renal
MOLT-4 leukemia = tested on: MOLT-4 leukemia
SK-MEL-5 melanoma = tested on: SK-MEL-5 melanoma
KM12 colon = tested on: KM12 colon
A549 NSCLC = tested on: A549 NSCLC
T-47D breast = tested on: T-47D breast
SF-539 CNS = tested on: SF-539 CNS
HOP-62 NSCLC = tested on: HOP-62 NSCLC
PC-3 prostate = tested on: PC-3 prostate

Compound | GI50 (MDA-MB-231 breast) [µM] | TGI (MDA-MB-231 breast) [µM] | GI50 (ACHN renal) [µM] | TGI (ACHN renal) [µM] | GI50 (MOLT-4 leukemia) [µM] | TGI (MOLT-4 leukemia) [µM] | GI50 (SK-MEL-5 melanoma) [µM] | TGI (SK-MEL-5 melanoma) [µM] | GI50 (KM12 colon) [µM] | TGI (KM12 colon) [µM] | GI50 (A549 NSCLC) [µM] | TGI (A549 NSCLC) [µM] | GI50 (T-47D breast) [µM] | TGI (T-47D breast) [µM] | GI50 (SF-539 CNS) [µM] | TGI (SF-539 CNS) [µM] | GI50 (HOP-62 NSCLC) [µM] | TGI (HOP-62 NSCLC) [µM] | GI50 (PC-3 prostate) [µM] | TGI (PC-3 prostate) [µM]
COc1cc2c(cc1OCCCCOc1cc3c(cc1OC)C(=O)N1CCC[C@H]1CN3)N=C[C@@H]1CCCN1C2=O | 1.05 | 5.26 | 2.62 | 29 | 0.282 | > 100 | 0.463 | 1.62 | 1.97 | 86.2 | 9.21 | > 100 | 0.512 | > 100 | 0.419 | 2.89 | 3.36 | > 100 | 2.02 | 97.9
Cc1cc2c3ccc(C)[n+](C)c3ccc2n1C | 5.14 | 55.3 | 21.5 | > 100 | 3.12 | 27.4 | 3.65 | 14.8 | 0.723 | 3.46 | 0.46 | 9.3 | 4.76 | 49 | 3.89 | 21.3 | 2.8 | 18.8 | 1.26 | 9.11
COc1cc2nc(N3CCCC3)nc(NCC3CCCCC3)c2cc1OC | 1.53 | 3.04 | 1.44 | 2.75 |  |  | 1.35 | 2.68 | 1.63 | 3.13 | 1.52 | 3.25 | 1.45 | 3.51 | 0.817 | 2.15 | 1.56 | 3.2 | 1.13 | 2.83
COc1cc2c(cc1OC(=O)CC(C)O)C1C(OC2=O)C(OC(C)=O)C=C2CCN(C)[C@H]21 (stereo partly specified) |  |  |  | > 100 |  | > 100 |  | > 100 |  | > 100 |  | > 100 |  |  |  | 52.8 |  | 55.7 |  | 
CC1=C(N2CC2)C(=O)c2nc3n(c2C1=O)CCC3OC(=O)CCl (stereo unspecified) |  | > 100 |  | 0.216 |  | 5.89 |  | 0.0893 |  | 0.0977 |  | 0.169 |  | 3.88 |  | 0.152 |  | 0.145 |  | 
CS(=O)(=O)Oc1cccc(/C=N/N=C(\N)NO)c1 |  |  |  | 66.1 |  |  |  |  |  | > 100 |  | > 100 |  |  |  | > 100 |  | > 100 |  | 
CC(C)CC(CC1=CCC2CC1C2(C)C)C1=C(O)C(C)(C)C(=O)C(C)(C)C1=O (stereo unspecified) | 0.247 | 0.717 | 0.352 | 3.58 | 0.343 | 1.6 | 0.206 | 0.468 | 0.328 | 2.79 | 0.359 | > 100 |  |  | 0.357 | > 100 | 0.303 | 1.14 | 0.318 | > 100
Cc1ccc(-c2cc(-c3ccc(C)cc3)nc(NCCNc3ccnc4cc(Cl)ccc34)n2)cc1 | 1.88 | 3.67 | 1.68 | 3.13 |  |  | 1.83 | 3.44 | 1.75 | 3.38 | 1.74 | 3.53 | 1.74 | 3.6 | 1.91 | 3.6 | 1.89 | 3.8 |  | 
O=[N+]([O-])c1cccc(-c2nc3sccn3c2-c2ccnc(NCCCNS(=O)(=O)c3cccc(F)c3)n2)c1 | 6.41 | 27.2 | 2.19 | 11.2 |  |  | 0.824 | 2.1 | 2.39 | 8.14 | 2.68 | 24.3 | 0.391 | 4.64 | 4.04 | 20.8 | 3.5 | 14.1 | 1.37 | 6.62
CCCCNCC(=O)O[C@]1(CC)C(=O)OCc2c1cc1n(c2=O)Cc2cc3ccccc3nc2-1 |  | > 100 |  | 3.77 |  | 0.232 |  | 1.27 |  | 6.55 |  | 26.7 |  | 2.44 |  | 0.849 |  |  |  | > 100
O=C1C(=O)N(c2ccc(Cl)c(Cl)c2)C(=O)C(=O)C1c1nc2ccccc2s1 |  |  |  | > 100 |  | > 100 |  | > 100 |  |  |  | > 100 |  |  |  | > 100 |  | > 100 |  | 
Brc1cccc(C2SCc3nc4ccccc4n32)c1 (stereo unspecified) |  |  |  | > 100 |  | > 100 |  | 18.9 |  | 42.7 |  | > 100 |  |  |  | 40.9 |  | 40.7 |  | 
O=C(O)C1(P(=O)(O)O)CC1 |  |  |  | > 100 |  | > 100 |  | > 100 |  | > 100 |  | > 100 |  |  |  | > 100 |  | > 100 |  | 
c1ccc2c(C3NCCc4[nH]cnc43)cccc2c1 (stereo unspecified) |  |  |  | > 100 |  | > 100 |  | > 100 |  | > 100 |  | > 100 |  |  |  | > 100 |  | > 100 |  | 
COc1ccc(NC(=O)/C(=N\NC(=O)C[n+]2ccccc2)c2c(O)c3ccc(O)cc3oc2=O)c([N+](=O)[O-])c1 |  | > 100 |  | > 100 |  | > 100 |  | > 100 |  | > 100 |  | > 100 |  | > 100 |  | > 100 |  |  |  | > 100
COc1cc2c(c(OC)c1OC)-c1ncc3cc(OC)c(OC)c(OC)c3c1C2 | 21.3 | 70.8 | 24 | 78.7 |  |  | 15.5 | 29.5 | 17.8 | 63 | 20.3 | > 100 | 50.4 | > 100 |  |  | 35.4 | 66.5 | 44.2 | > 100
COc1ccc(NC(=O)C/C(C)=N\N=C(N)N)c([N+](=O)[O-])c1 |  |  |  | > 100 |  | > 100 |  | > 100 |  | > 100 |  | > 100 |  |  |  | > 100 |  | > 100 |  | 
C[Si](C)(C)OC1(C#N)C2C3CC4C2C(=O)C2C4C3C21 (stereo unspecified) |  |  |  | > 100 |  | > 100 |  | > 100 |  | > 100 |  | > 100 |  |  |  | > 100 |  | > 100 |  | 
